US8461389B2, “Psycho-pharmaceuticals” (University College Dublin, National University of Ireland, …, priority 2008, dated 2013)

Test system: C57B16 mice
Assay: Forced swim test
Assay type: in vivo
Conditions: 3 mg/kg and 5 mg/kg; n=8; FIG. 10B
Procedure: • 1. Fill a 12 cm diameter glass cylinder to 10 cm with 22° C. water. • 2. Place two animals simultaneously in individual side-by-side cylinders separated by an opaque screen. • 3. Place mice in the cylinders for 6 minutes. • 4. Observe the behaviour of the mice for the last 4-minutes of the 6-minute experimental session. • 5. Sessions are videotaped and scored blind, Immobility is scored by summing the time spent immobile; movements necessary to maintain the animals head above water were not scored with data from treated groups compared with data from the control group using nonpaired Student's t tests (two tailed). • 6. Animals are dried with paper towels and heat lamps. FST in Rats: Habituation Session (Day 1) • 1. On Day 1, […] prior to testing, place the animals in the experimental room 60 min before the beginning of the habituation session. Randomly assign animals to a drug treatment, but give all animals within a cage the same treatment. Make food and water available throughout the experiment. • 2. Weigh two animals individually, then place one rat in each of the two cylinders (20 cm in diameter×40 cm high) containing water (25° C.) for 15 min (habituation session). No scoring of immobility is performed during the habituation session. […]
Values are expressed as mean±S.E.M (n=8). Statistical difference was determined using a Mann Whitney non-parametric U-test. […]

CCCCSc1ccc(C(SCCN(C)C)c2ccccc2)cc1 (single isomer, unassigned) [dextrorotary (+) enantiomer]
antidepressant activity of separated enantiomer (time spent immobile, forced swim test): retains the antidepressant biologic activity
